Reference: patent publication US9249148B2, “Tris(hetero)arylpyrazoles and use thereof” (AICURIS GMBH & CO. KG, priority 2012, dated 2016)

Legend:
Format in all cases: cell-based
HIV-1NL4-3 K103N-Y181C = test: Luminescence Reduction Assay, luciferase reporter virus with resistance mutations in MT4 cells; conditions: Human immunodeficiency virus 1, MT4, read-out: EC50 (μM) MT4 cells HIV-1NL4-3 K103N-Y181C 2% FBS
Source text: (§1) For this assay, HIV-1NL4-3 reporter viruses are used which carry the luciferase164 gene (lu164) in place of the nef gene. The viruses are generated by transfection of 293T cells with the corresponding proviral pNL4-3 plasmid (Lipofectamine Reagent, Invitrogen, Karlsruhe, Germany). Starting from the proviral plasmid DNA, viruses with defined resistance mutations (single or combined) are produced in the reverse transcriptase gene using the “QuikChange II XL Site-Directed Mutagenesis Kit” (Stratagene, Cedar Creek, Tex., USA). Resistance mutations include, among others: L74V, A98G, A98S, L100I, K101E, K103N, V106A, V106I, V106M, V108I, V108A, E138K, V179I, V179D, V179E, Y181C, Y181I, Y188L, G190A, G1905, H221Y, P225H, F227C, F227L, F227V, M230I, M230L, L234I, P236L, N348I, T369A, T369I, T369V. MT4 cells infected with these reporter viruses (NIH AIDS Research and Reference Reagent Program) secrete luciferase into the medium, which enables the luminometric quantification of the virus replication.
(§2) For starting a 96-well MTP, 3 million MT4 cells are pelleted, suspended in 1 ml RPMI 1640 medium without phenol red (Invitrogen, Karlsruhe, Germany)/10% FBS/2 mM L-glutamine/1% Pen/Strep (Invitrogen, Karlsruhe, Germany), and incubated for 2 hours at 37° C. with a suitable quantity of the relevant HIV-1NL4-3 reporter virus (pellet infection). Non-adsorbed viruses are then washed out, and the infected cells are pelleted again and suspended in 8 ml RPMI 1640 medium without phenol red/2% or 10% FBS/2 mM L-glutamine/1% Pen/Strep. From this, 90 μl per well is pipetted into a white 96-well MTP to 10 μl of test substance at a suitable level of dilution. In order to avoid edge effects, the edge wells of the MTP are not used for substance dilutions. The second vertical row of the MTP contains only infected cells (virus control) and the eleventh vertical row only non-infected cells (cell control), each in RPMI 1640 medium without phenol red/2% or 10% FBS/2 mM L-glutamine/1% Pen/Strep. The remaining wells of the MTP contain the compounds in accordance with the invention in various concentrations, starting from the third vertical row, from which the test substances are diluted in 3-step sequences up to the tenth vertical row by a factor of 3^7. The test substances are dissolved in DMSO; the final DMSO concentration in the test formulation is 1%.

HIV-1LAI wildtype = test: alamarBlue Viability Assay with HIV-1LAI-infected MT4 cells; conditions: Human immunodeficiency virus 1, 10% FBS
Protocol: For starting a 96-well MTP, 3 million PBLs are pelleted, suspended in 1 ml RPMI 1640 medium/10% FBS/2 mM L-glutamine/1% Pen/Strep and incubated for 2 hours at 37° C. with a suitable quantity of the relevant HIV-1LAI (NIH AIDS Research & Reference Reagent Program, Germantown, USA) (pellet infection). Non-adsorbed viruses are then washed out, and the infected cells pelleted again and suspended in 18 ml RPMI 1640 medium/10% FBS/2 mM L-glutamine/1% Pen/Strep/Interleukin-2 (40 U/ml). From this, 180 μl per well is pipetted into a 96-well MTP to 20 μl of test substance at a suitable level of dilution. Alternatively, the HIV is added after preparation of the substance dilutes in the MTP together with the cells, and is not washed out (supernatant infection). In order to avoid edge effects, the edge wells of the MTP are not used for substance dilutions. The second vertical row of the MTP contains only infected cells (virus control) and the eleventh vertical row only non-infected cells (cell control), each in RPMI 1640 medium/10% FBS/2 mM L-glutamine/1% Pen/Strep/Interleukin-2 (40 U/ml). The remaining wells of the MTP contain the compounds in accordance with the invention in various concentrations, starting from the third vertical row, from which the test substances are diluted in 3-step sequences up to the tenth vertical row by a factor of 3^7. The test substances are dissolved in DMSO; the final DMSO concentration in the test preparation is 1%. The test samples are incubated for 5 days at 37° C./5% CO2. After 5 to 7 days, 50 μl of cell-free supernatant is removed from each well to determine its p24 content using p24 ELISA (HIV-1 p24CA Antigen Capture Assay Kit, NCI-Frederick Cancer Research and Development Center, Frederick, USA). From the resulting values of the photometric analysis (450/620 nm), the EC50 values of the test substances are determined from the resulting dose-response curves using the Prism4 software (GraphPad, San Diego, Calif.) as the concentration of treated infected cells, where the p24 quantity is 50% of the untreated infected cells.
Alternatively, MT4 cells are used in place of PBLs for testing the test substances. HIV-1LAI-infected MT4 cells (MOI 0.01, supernatant infection) are incubated in accordance with the procedure described above in RPMI 1640 medium using 2% or 10% FKS/2 mM L-glutamine/1% Pen/Strep in the presence of the test substances for 5 days at 37° C./5% CO2 (10 μl diluted substance and 90 μl cells/virus per well). 10 μl alamarBlue (Invitrogen, Karlsruhe, Germany) is then added per well and the MTPs are incubated for 3 hours at 37° C. before fluorimetric evaluation is performed (544/590 nm). Using quattroWorkflow software (Quattroresearch, Martinsried, Germany), the EC50 values of the test substances are determined from the resulting dose-response curves as the concentration of treated infected cells in which the fluorescence is 50% of that of the untreated, non-infected cells.

HIV-1NL4-3 wildtype = test: Luminescence Reduction Assay, luciferase reporter virus in MT4 cells; conditions: Human immunodeficiency virus 1, MT4, read-out: EC50 (μM) MT4 cells HIV-1NL4-3 wildtype 2% FBS
Source text: as §1, §2

Structure (SMILES) | EC50 (HIV-1NL4-3 K103N-Y181C) [µM] | EC50 (HIV-1LAI wildtype) [µM] | EC50 (HIV-1NL4-3 wildtype) [µM]
O=C1NCc2c1ccnc2-c1cc(-c2cc(F)cc(Cl)c2)n(-c2cccnc2)n1 [Example 2, 4-[5-(3-chloro-5-fluorophenyl)-1-(pyridine-3-yl)-1H-pyrazole-3-yl]-2,3-dihydro-1H-pyrrolo[3,4-c]pyridine-1-one] | 0.0132 | 0.0063 | 0.0013
O=C1NCc2c1ccnc2-c1cc(-c2ccc(F)c(OC(F)(F)F)c2)n(-c2cccc(Cl)c2)n1 [Example 43] | 0.2 | 0.674 | 0.0568
O=C1NCc2c1ccnc2-c1cc(-c2cncc(Cl)c2)n(-c2ccc(F)c(Cl)c2)n1 [Example 31] | 0.0024 | 0.0041 | 0.0008
O=C1NCc2c1cccc2-c1cc(-c2cncc(Cl)c2)n(-c2ccc(F)c(Cl)c2)n1 [Example 32] | 0.0383 | 0.0273 | 0.0069
O=C1NCc2c1ccnc2-c1cc(-c2cc(Br)cc(OC(F)(F)F)c2)n(-c2ccc(F)c(Cl)c2)n1 [Example 12, 4-{5-[3-bromo-5-(trifluoromethoxy)phenyl]-1-(3-chloro-4-fluorophenyl)-1H-pyrazole-3-yl}-2,3-dihydro-1H-pyrrolo[3,4-c]pyridine-1-one] | 0.012 | 0.0974 | 0.0089
O=C1NCc2c1ccnc2-c1cc(-c2cc(F)cc(OC(F)(F)F)c2)n(-c2cccnc2)n1 [Example 6, 4-{5-[3-fluoro-5-(trifluoromethoxy)phenyl]-1-(pyridine-3-yl)-1H-pyrazole-3-yl}-2,3-dihydro-1H-pyrrolo[3,4-c]pyridine-1-one] | 0.0083 | 0.0137 | 0.0024
O=C1NCc2c1ccnc2-c1cc(-c2cc(Cl)cc(C(F)(F)F)c2)n(-c2ccc(F)c(Cl)c2)n1 [Example 30] | 0.011 | 0.0881 | 0.0075
O=c1[nH][nH]c2c(-c3cc(-c4cc(F)cc(Cl)c4)n(-c4ccc(F)c(Cl)c4)n3)cccc12 [Example 29] | 1.22 | 2.06 | 0.39
N#Cc1cc(-n2nc(-c3cccc4c3CNC4=O)cc2-c2cc(F)cc(Cl)c2)ccc1F [Example 25] | 0.0112 | 0.0107 | 0.0009
Cc1cc(F)cc(-c2cc(-c3nccc4c3CNC4=O)nn2-c2ccc(F)c(Cl)c2)c1 [Example 22] | 0.0077 | 0.0245 | 0.0009
O=C1NCc2c1ccnc2-c1cc(-c2cc(Br)cc(OC(F)F)c2)n(-c2ccnc(Cl)c2)n1 [Example 20, 4-{5-[3-bromo-5-(difluoromethoxy)phenyl]-1-(2-chloropyridine-4-yl)-1H-pyrazole-3-yl}-2,3-dihydro-1H-pyrrolo[3,4-c]pyridine-1-one] | 0.004 | 0.0118 | 0.001
Cc1nc2c(c(-c3cc(-c4cc(Cl)cc(OC(F)(F)F)c4)n(-c4cccnc4)n3)n1)CNC2=O [Example 46] | 0.0004 | 0.0023 | 0.0004
O=C1NC(=O)c2c1cccc2-c1cc(-c2cc(F)cc(OC(F)(F)F)c2)n(-c2cccnc2)n1 [Example 8, 4-{5-[3-fluoro-5-(trifluoromethoxy)phenyl]-1-(pyridine-3-yl)-1H-pyrazole-3-yl}-1H-isoindole-1,3(2H)-dione] | > 3.3 | > 3.3 | 0.643
O=C1NCc2c1cccc2-c1cc(-c2cc(F)cc(Cl)c2)n(-c2ccc(F)c(Cl)c2)n1 [Example 3, 4-[1-(3-chloro-4-fluorophenyl)-5-(3-chloro-5-fluorophenyl)-1H-pyrazole-3-yl]-2,3-dihydro-1H-isoindole-1-one] | 0.0289 | 0.0586 | 0.006
N#Cc1cc(-n2nc(-c3nccc4c3CNC4=O)cc2-c2cc(F)cc(Cl)c2)ccc1F [Example 24] | 0.0003 | 0.0006 | 0.0002
O=C1NCc2c1cccc2-c1cc(-c2cc(F)cc(OC(F)(F)F)c2)n(-c2cccnc2)n1 [Example 7, 4-{5-[3-fluoro-5-(trifluoromethoxy)phenyl]-1-(pyridine-3-yl)-1H-pyrazole-3-yl}-2,3-dihydro-1H-isoindole-1-one] | 0.0206 | 0.0512 | 0.0107
N#Cc1cccc(-c2cc(-c3cccc4c3CNC4=O)nn2-c2ccc(F)cc2)c1 [Example 36] | 0.0675 | 0.449 | 0.0848
O=C1NCc2c1cccc2-c1cc(-c2cccc(Cl)c2)n(-c2cccc(C(F)(F)F)c2)n1 [Example 38] | 1.18 | 0.948 | 0.18
O=C1NCc2c1ccnc2-c1cc(-c2cc(Br)cc(OC(F)F)c2)n(-c2cccnc2)n1 [Example 19, 4-{5-[3-bromo-5-(difluoromethoxy)phenyl]-1-(pyridine-3-yl)-1H-pyrazole-3-yl}-2,3-dihydro-1H-pyrrolo[3,4-c]pyridine-1-one] | 0.0019 | 0.0028 | 0.0003
O=C1NCc2c1ccnc2-c1cc(-c2cc(F)cc(OC(F)F)c2)n(-c2cccnc2)n1 [Example 14, 4-{5-[3-(difluoromethoxy)-5-fluorophenyl]-1-(pyridine-3-yl)-1H-pyrazole-3-yl}-2,3-dihydro-1H-pyrrolo[3,4-c]pyridine-1-one] | 0.0097 | 0.0053 | 0.001
Cc1cc(F)cc(-c2cc(-c3cccc4c3CNC4=O)nn2-c2ccc(F)c(Cl)c2)c1 [Example 23] | 0.0565 | 0.0983 | 0.015
Cc1ccc(-n2nc(-c3nccc4c3CNC4=O)cc2-c2cc(F)cc(Cl)c2)cc1Cl [Example 28] | 0.0291 | 0.0876 | 0.0172
O=C1NCc2c1cccc2-c1cc(-c2cc(F)cc(Cl)c2)n(-c2cccnc2)n1 [Example 4, 4-[5-(3-chloro-5-fluorophenyl)-1-(pyridine-3-yl)-1H-pyrazole-3-yl]-2,3-dihydro-1H-isoindole-1-one] | 0.042 | 0.0155 | 0.0055
